These results are taken from patent US20200129561A1, “DELIVERY OF AUTOLOGOUS CELLS COMPRISING MATRIX METALLOPROTEINASE FOR TREATMENT OF SCLERODERMA” (Intrexon Corporation, priority 2017, published 2020).

The data set is described as follows: Nonclinical studies of veledimex control of target protein expression: tissue level of veledimex. Format: in vivo. To be noted: oral administration; other target proteins. The text has this:
MMP-1 expression levels were undetected after 10 days post-injection.

On to `CCC[C@@H](N(NC(=O)c1cccc(OC)c1CC)C(=O)c1cc(C)cc(C)c1)C(C)(C)C` [veledimex, 3,5-dimethyl-benzoic acid (R)—N-(1-tert-butyl-butyl)-N′-(2-ethyl-3-methoxy-benzoyl)-hydrazide], for which the “levels of veledimex in the tissue at which maximal expression of target protein can be achieved” value was “approximately 250 ng/mL”.
